Experimental data published in ChEMBL document CHEMBL6103624, “Design, Synthesis, and Biological Evaluation of Marchantin C-NO Donor Hybrids for Overcoming Pgp-Mediated Drug Resistance by Targeting Lysosome” (J Med Chem, 2025).
Activity calls are given as the source filed them. No cut-off for these calls is given here.

Key:
[1] = Toxicity in BALB/c mouse xenografted with human MCF7ADR cells assessed as lung damage at 1.25 to 5 mg/kg, ip measured for 21 days by H and E staining based analysis; type: organism-based; details: in vivo, 504 h, dose 1.25-5 mg/kg, time 21 day
[2] = Toxicity in BALB/c mouse xenografted with human MCF7ADR cells assessed as heart damage at 1.25 to 5 mg/kg, ip measured for 21 days by H and E staining based analysis; type: organism-based; details: in vivo, 504 h, dose 1.25-5 mg/kg, time 21 day
[3] = tested on: NCI/ADR-RES; test: Downregulation of Bcl-2 expression in human MCF7ADR cells incubated for 24 hrs by Western blot analysis; type: functional, cell-based; details: dose 25-50 nM
[4] = Induction of NO release in lysosome of human MCF-7/ADR cells assessed as increase in green fluorescence intensity at 100 nM by Lyso-NO probe based laser scanning confocal microscopic analysis; type: subcellular; details: 0.1 µM, time 1-3 hrs
[5] = tested on: NCI/ADR-RES; test: Upregulation of Caspase-3 expression in human MCF7ADR cells at 25 to 50 nM incubated for 24 hrs by Western blot analysis; type: functional, cell-based; details: dose 25-50 nM
[6] = tested on: NCI/ADR-RES; test: Induction of NO release in human MCF7ADR cells by DAF-FM DA probe based analysis; type: functional, cell-based; details: dose 50-100 nM
[7] = tested on: NCI/ADR-RES; test: Upregulation of m-CTSD expression in human MCF7ADR cells at 50 to 100 nM incubated for 24 hrs by Western blot analysis; type: functional, cell-based; details: dose 50-100 nM
[8] = tested on: NCI/ADR-RES; test: Induction of ROS production in human MCF-7/ADR cells in presence of elacridar; type: functional, cell-based
[9] = tested on: NCI/ADR-RES; test: Induction of NO release in human MCF7ADR cells at 100 uM measured for 5 hrs by Griess reagent assay; type: functional, cell-based
[10] = Selectivity index, ratio of IC50 for antiproliferative activity against human A549 cells assessed as inhibition of cell growth to IC50 for antiproliferative activity against human A549/Taxol cells assessed as inhibition of cell growth; type: functional
[11] = Toxicity in BALB/c mouse xenografted with human MCF7ADR cells assessed as change in body weight at 1.25 to 5 mg/kg, ip measured for 21 days; type: organism-based; details: in vivo, 504 h, dose 1.25-5 mg/kg, time 21 day
[12] = tested on: NCI/ADR-RES; test: Inhibition of colony formation in human MCF7ADR cells assessed as reduction in colony growth at 40 nM incubated for 12 days in presence of hemoglobin by crystal violet staining based assay; type: functional, cell-based; details: time 12.0 day
[13] = Toxicity in BALB/c mouse xenografted with human MCF7ADR cells assessed as spleen damage at 1.25 to 5 mg/kg, ip measured for 21 days by H and E staining based analysis; type: organism-based; details: in vivo, 504 h, dose 1.25-5 mg/kg, time 21 day
[14] = tested on: HepG2; test: Antiproliferative activity against human HepG2 cells assessed as inhibition of cell growth incubated for 48 hrs by MTT assay; type: functional, cell-based; details: HepG2, 48 h
[15] = tested on: NCI/ADR-RES; test: Induction of apoptosis in human MCF7ADR cells at 25 to 50 nM incubated for 24 hrs by Annexin V-FITC/PI staining based flow cytometry analysis; type: functional; details: dose 25-50 nM
[16] = tested on: NCI/ADR-RES; test: Inhibition of colony formation in human MCF7ADR cells assessed as reduction in colony growth at 40 to 50 nM incubated for 12 days by crystal violet staining based assay; type: functional, cell-based; details: dose 40-50 nM, time 12.0 day
[17] = tested on: NCI/ADR-RES; test: Antiproliferative activity against human MCF7ADR cells assessed as inhibition of cell growth incubated for 48 hrs by MTT assay; type: functional, cell-based
[18] = tested on: A549; test: Upregulation of P-gp expression in human A549 cells at 1 to 4 uM incubated for 24 hrs by Western blot analysis; type: functional, cell-based; details: dose 1-4 µM
[19] = tested on: NCI/ADR-RES; test: Antitumor activity against human MCF7ADR cells xenografted in ip dosed BALB/c mouse assessed as decrease in ki67 expression measured for 21 days; type: functional, organism-based; details: dose 1.25-5 mg/kg, time 21.0 day
[20] = tested on: NCI/ADR-RES; test: Induction of NO release in human MCF7ADR cells at 100 uM by Griess reagent assay; type: functional, cell-based; details: time <= 10.0 hrs
[21] = tested on: MCF7; test: Antiproliferative activity against human MCF7 cells assessed as inhibition of cell growth incubated for 48 hrs by MTT assay; type: functional, cell-based; details: MCF7, 48 h
[22] = tested on: NCI/ADR-RES; test: Induction of apoptosis in human MCF7ADR cells assessed as increase in PARP1 cleavage at 25 to 50 nM incubated for 24 hrs by Western blot analysis; type: functional, cell-based; details: dose 25-50 nM
[23] = Induction of NO release in lysosome of human A549/Taxol cells assessed as increase in green fluorescence intensity at 100 nM by Lyso-NO probe based laser scanning confocal microscopic analysis; type: subcellular; details: 0.1 µM, time 1-3 hrs
[24] = Selectivity index, ratio of IC50 for antiproliferative activity against human MCF7 cells assessed as inhibition of cell growth to IC50 for antiproliferative activity against human MCF7ADR cells assessed as inhibition of cell growth; type: functional
[25] = tested on: NCI/ADR-RES; test: Upregulation of Bax expression in human MCF7ADR cells incubated for 24 hrs by Western blot analysis; type: functional, cell-based; details: dose 25-50 nM
[26] = tested on: NCI/ADR-RES; test: Induction of cell cycle arrest in human MCF7ADR cells assessed as accumulation of cells at G2/M phase at 20 nM incubated for 24 hrs by flow cytometry analysis (reference value: 11.2%); type: functional
[27] = tested on: MCF7; test: Upregulation of P-gp expression in human MCF7 cells at 25 to 100 nM incubated for 24 hrs by Western blot analysis; type: functional, cell-based; details: dose 25-100 nM
[28] = Cytotoxicity against human BEAS-2B cells assessed as inhibition of cell growth incubated for 48 hrs by MTT assay; type: toxicity, cell-based
[29] = tested on: Lysosomal membrane; test: Induction of lysosomal membrane permeabilization in human MCF7ADR cells assessed as increase fluorescence intensity incubated for 6 hrs by LysoTracker red probe based laser scanning confocal microscopic analysis; type: subcellular; details: dose 50-100 nM
[30] = tested on: NCI/ADR-RES; test: Induction of apoptosis in human MCF7ADR cells incubated for 24 hrs by Annexin V-FITC/PI staining based flow cytometry analysis; type: functional, cell-based; details: dose 25-50 nM
[31] = target: T1, ATP-dependent translocase ABCB1 (Homo sapiens, UniProt P08183); test: Inhibition of P-gp-mediated rhodamine-123 efflux in human MCF7 cells assessed as increase in Rh123 accumulation incubated for 4 hrs by flow cytometry analysis; type: cell-based; details: mcf7, 4 h, at 10 to 50 nM, dose 10-50 nM
T1 sequence (P08183 whole entry): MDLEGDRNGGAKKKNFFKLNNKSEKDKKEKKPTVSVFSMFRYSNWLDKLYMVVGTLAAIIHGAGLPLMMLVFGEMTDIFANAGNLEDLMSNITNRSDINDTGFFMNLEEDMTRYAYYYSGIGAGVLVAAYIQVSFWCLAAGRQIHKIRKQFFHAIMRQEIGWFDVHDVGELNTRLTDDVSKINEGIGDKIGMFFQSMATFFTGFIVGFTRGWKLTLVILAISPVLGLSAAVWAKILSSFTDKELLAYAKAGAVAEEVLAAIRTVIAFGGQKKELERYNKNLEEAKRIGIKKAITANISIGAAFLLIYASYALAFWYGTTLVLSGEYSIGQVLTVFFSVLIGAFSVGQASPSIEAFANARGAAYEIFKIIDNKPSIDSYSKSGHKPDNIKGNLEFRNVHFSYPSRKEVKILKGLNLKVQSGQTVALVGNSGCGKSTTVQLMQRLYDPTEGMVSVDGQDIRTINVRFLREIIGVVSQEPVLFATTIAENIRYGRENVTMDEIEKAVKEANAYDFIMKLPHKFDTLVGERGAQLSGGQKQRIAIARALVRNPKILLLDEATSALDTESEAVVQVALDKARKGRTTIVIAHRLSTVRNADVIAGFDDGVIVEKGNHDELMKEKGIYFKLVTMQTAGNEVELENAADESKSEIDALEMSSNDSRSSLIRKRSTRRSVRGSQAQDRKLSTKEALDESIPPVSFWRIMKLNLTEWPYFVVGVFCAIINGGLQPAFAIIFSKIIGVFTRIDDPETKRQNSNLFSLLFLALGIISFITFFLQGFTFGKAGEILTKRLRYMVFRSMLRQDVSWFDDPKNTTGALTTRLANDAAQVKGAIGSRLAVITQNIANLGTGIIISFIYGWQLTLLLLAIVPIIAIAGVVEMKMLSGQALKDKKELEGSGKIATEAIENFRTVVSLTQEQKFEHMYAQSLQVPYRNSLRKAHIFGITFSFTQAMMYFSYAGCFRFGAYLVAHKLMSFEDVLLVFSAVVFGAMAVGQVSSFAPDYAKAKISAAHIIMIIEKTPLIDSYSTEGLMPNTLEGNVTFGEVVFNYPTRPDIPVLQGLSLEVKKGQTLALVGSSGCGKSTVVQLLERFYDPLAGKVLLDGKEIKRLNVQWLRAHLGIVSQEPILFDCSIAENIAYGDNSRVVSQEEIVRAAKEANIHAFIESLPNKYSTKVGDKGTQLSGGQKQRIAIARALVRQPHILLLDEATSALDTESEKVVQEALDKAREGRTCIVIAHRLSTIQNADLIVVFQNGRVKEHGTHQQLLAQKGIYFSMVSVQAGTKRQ

[32] = Cytotoxicity against human MCF-10A cells assessed as inhibition of cell growth incubated for 48 hrs by MTT assay; type: toxicity, cell-based
[33] = target: T1, ATP-dependent translocase ABCB1; test: Inhibition of P-gp-mediated rhodamine-123 efflux in human MCF-7/ADR cells assessed as increase in Rh123 accumulation incubated for 4 hrs by flow cytometry analysis; type: cell-based; details: at 10 to 50 nM, dose 10-50 nM
[34] = tested on: NCI/ADR-RES; test: Antitumor activity against human MCF7ADR cells xenografted in BALB/c mouse at 1.25 to 5 mg/kg, ip measured for 21 days; type: functional, organism-based; details: dose 1.25-5 mg/kg, time 21.0 day
[35] = tested on: PC-3; test: Antiproliferative activity against human PC-3 cells assessed as inhibition of cell growth incubated for 48 hrs by MTT assay; type: functional, cell-based; details: PC-3, 48 h
[36] = tested on: NCI/ADR-RES; test: Induction of cell cycle arrest in human MCF7ADR cells assessed as accumulation of cells at G2/M phase at 40 nM incubated for 24 hrs by flow cytometry analysis (reference value: 11.2%); type: functional
[37] = Toxicity in BALB/c mouse xenografted with human MCF7ADR cells assessed as liver damage at 1.25 to 5 mg/kg, ip measured for 21 days by H and E staining based analysis; type: organism-based; details: in vivo, 504 h, dose 1.25-5 mg/kg, time 21 day
[38] = tested on: NCI/ADR-RES; test: Antitumor activity against human MCF7ADR cells xenografted in BALB/c mouse at 1.25 mg/kg, ip measured for 21 days; type: functional, organism-based; details: time 21.0 day
[39] = Drug localization in lysosome of human MCF-7/ADR cells assessed as emission of yellow fluorescence incubated for 1 hr by DAPI staining based laser scanning confocal microscopic analysis; type: ADME, subcellular
[40] = tested on: A549/TR; test: Antiproliferative activity against human A549/Taxol cells assessed as inhibition of cell growth incubated for 48 hrs by MTT assay; type: functional, cell-based
[41] = tested on: NCI/ADR-RES; test: Upregulation of P-gp expression in human MCF-7/ADR cells at 25 to 100 nM incubated for 24 hrs by Western blot analysis; type: functional, cell-based; details: dose 25-100 nM
[42] = tested on: A549; test: Antiproliferative activity against human A549 cells assessed as inhibition of cell growth incubated for 48 hrs by MTT assay; type: functional, cell-based; details: A549, 48 h
[43] = tested on: NCI/ADR-RES; test: Antitumor activity against human MCF7ADR cells xenografted in BALB/c mouse assessed as inhibition of tumor volume at 5 mg/kg, ip measured for 21 days; type: functional; details: 504 h, time 21 day
[44] = tested on: NCI/ADR-RES; test: Induction of ROS production in human MCF-7/ADR cells in presence of NAC; type: functional, cell-based
[45] = Toxicity in BALB/c mouse xenografted with human MCF7ADR cells assessed as kidney damage at 1.25 to 5 mg/kg, ip measured for 21 days by H and E staining based analysis; type: organism-based; details: in vivo, 504 h, dose 1.25-5 mg/kg, time 21 day
[46] = tested on: NCI/ADR-RES; test: Induction of cell cycle arrest in human MCF7ADR cells assessed as accumulation of cells at G2/M phase at 30 nM incubated for 24 hrs by flow cytometry analysis (reference value: 11.2%); type: functional
[47] = tested on: A549/TR; test: Upregulation of P-gp expression in human A549/Taxol cells at 1 to 4 uM incubated for 24 hrs by Western blot analysis; type: functional, cell-based; details: dose 1-4 µM

For `O=S(=O)(c1ccccc1)c1c(OCCCOc2cccc3c2Oc2cccc(c2)CCc2ccc(O)c(c2)Oc2ccc(cc2)CC3)no[n+]1[O-]`, the Activity [1] was “Non-toxic”, the Activity [2] was “Non-toxic” and the Activity [3] was “Dose-dependent-effect”. For the same molecule, the Activity [4] was “Time-dependent-effect”, the Activity [5] was “Active” and the Activity [6] was “Dose-dependent-effect”. The Activity [7] was “Active”, the Activity [8] was “Active” and the Activity [9] was “Active”. The “Ratio IC50” value [10] was 17, the Activity [11] was “Non-toxic” and the inhibition [12] was “Active”. The Activity [13] was “Non-toxic”, the IC50 [14] was 6.57 µM and the Activity [15] was 8.6%. For the same molecule, the inhibition [16] was “Active”, the IC50 [17] was 24 nM and the Activity [18] was “Active”. The Activity [19] was “Dose-dependent-effect”, the Activity [20] was “Time-dependent-effect” and the IC50 [21] was 21.2 µM. The Activity [22] was “Active”, the Activity [23] was “Time-dependent-effect” and the “Ratio IC50” value [24] was 883. The Activity [25] was “Dose-dependent-effect”, the Activity [26] was 18.1% and the Activity [27] was “inactive”. The IC50 at 48 h [28] was 14.8 µM, the Activity [29] was “Dose-dependent-effect” and the Activity [30] was “Dose-dependent-effect”. The “inhibition (INH)” value [31] was “Dose-dependent-effect”, the IC50 at 48 h [32] was 14.3 µM and the “inhibition (INH)” value [33] was “Dose-dependent-effect”. For the same molecule, the Activity [34] was “Active; Displayed Strong Antitumor Activity Than Ptx”, the IC50 [35] was 3.36 µM and the Activity [36] was 25.3%. For the same molecule, the Activity [37] was “Non-toxic”, the Activity [38] was “Active” and the Drug uptake [39] was “Active”. For the same molecule, the IC50 [40] was 1430 nM, the Activity [41] was “Active” and the IC50 [42] was 23.8 µM. For the same molecule, the inhibition in vivo at 5 mg/kg [43] was 62.7%, the Activity [44] was “Active” and the Activity [45] was “Non-toxic”. For the same molecule, the Activity [46] was 20.3% and the Activity [47] was “Active”.
